How the values were obtained:
LOXIMVI melanoma cells = experiment: MTS cell viability, LOXIMVI; assay type: cell-based, human; conditions: LOXIMVI, 4 days
Method: (§1) All human cancer cell lines were maintained in RPMI media supplemented with 5% (lung and breast cancer cells) or 10% (melanoma cells) fetal bovine serum. […] Human mammary epithelial cells immortalised with telomerase were maintained in complete MEGM media from Cambrex (East Rutherford, NJ, USA).
(§2) Absorbance at 490 and 650 nm (reference wavelength) was measured by a Spectra Max (Molecular Devices, Sunnyvale, CA, USA) or a FlouroStar Omega (BMG Biosciences, Ortenberg, Germany) plate reader. Data were normalised to the untreated controls (100% viability). Each cell line was tested in 1–5 independent assays, each containing 4–8 replicates. IC50 values were calculated using DIVISA, a high-throughput software, developed in-house (manuscript in preparation), for storing and analysing drug sensitivity assays. Dose–response curves were plotted using a non-linear regression model and IC50s were determined from the fitted curves.

SKMEL2 melanoma cells = experiment: MTS cell viability, SKMEL2; assay type: cell-based, human; conditions: SK-MEL2, MTS, 4 days
Method: as §1, §2

[1] = tested on: MEL270 uveal melanoma cells; experiment: MTS cell viability, MEL270; assay type: cell-based, human; conditions: Homo sapiens, 96 h, 4 days
Method: as §1, §2

[2] = tested on: OCM1 uveal melanoma cells; experiment: MTS cell viability, OCM1; assay type: cell-based, human; conditions: Homo sapiens, 96 h, 4 days
Method: as §1, §2

[3] = tested on: OCM3 uveal melanoma cells; experiment: MTS cell viability, OCM3; assay type: cell-based, human; conditions: Homo sapiens, 96 h, 4 days
Method: as §1, §2

[4] = tested on: OMM2.3 uveal melanoma cells; experiment: MTS cell viability, OMM2.3; assay type: cell-based, human; conditions: Homo sapiens, 96 h, 4 days
Method: as §1, §2

[5] = tested on: HBEC30KT human bronchial epithelial cells; experiment: MTS cell viability, HBEC30KT; assay type: cell-based; conditions: Homo sapiens, Epithelial cell, 96 h, HBEC30KT, 4 days
Method: as §1, §2

[6] = tested on: HCC4017 lung cancer cells; experiment: MTS cell viability, HCC4017; assay type: cell-based, human; conditions: Homo sapiens, 96 h; HCC4017, MTS, 4 days
Method: as §1, §2

[7] = tested on: HBEC34KT human bronchial epithelial cells; experiment: MTS cell viability, HBEC34KT; assay type: cell-based; conditions: Homo sapiens, Epithelial cell, 96 h, HBEC34KT, 4 days
Method: as §1, §2

[8] = tested on: HCC4018 lung cancer cells; experiment: MTS cell viability, HCC4018; assay type: cell-based, human; conditions: Homo sapiens, 96 h; HCC4018, MTS, 4 days
Method: as §1, §2

Melanocytes = experiment: MTS cell viability, primary melanocytes; assay type: cell-based, human; conditions: Homo sapiens, Melanocyte, 96 h, 4 days
Method: as §1, §2

[9] = tested on: patient-matched human bronchial epithelial cells/human non-small lung cancer cells (HBEC30KT/HCC4017, HBEC34KT/HCC4018); experiment: Cancer vs normal selectivity in patient-matched pairs (MTS viability); assay type: cell-based
Method: as §1, §2

H1437 cells = experiment: MTS cell viability, H1437; assay type: cell-based, human; conditions: cell viability, Supplementary Figure 2D
Method: as §1, §2

HCC15 cells = experiment: MTS cell viability, HCC15; assay type: cell-based, human; conditions: cell viability, Supplementary Figure 2C
Method: as §1, §2

H2073 cells = experiment: MTS cell viability, H2073; assay type: cell-based, human; conditions: H2073 cells, verapamil plus depsipeptide
Method: as §1, §2

H1993 cells = experiment: MTS cell viability, H1993; assay type: cell-based, human; conditions: H1993 cells, verapamil plus depsipeptide
Method: as §1, §2

SMILES: CCC(=O)CCCCC[C@@H]1NC(=O)[C@H]2CCCCN2C(=O)[C@H]([C@@H](C)CC)NC(=O)[C@H](Cc2cn(OC)c3ccccc23)NC1=O [Apicidin, apicidin]
- sensitivity (position in drug sensitivity profile of melanoma panel) (LOXIMVI melanoma cells): sensitive
- sensitivity (position in drug sensitivity profile of melanoma panel) (SKMEL2 melanoma cells): on the sensitive side
- IC50 [1]: 650 nM
- IC50 [2]: 700 nM
- IC50 [3]: 4000 nM
- IC50 [4]: 400 nM
- IC50 [5]: 90 nM
- IC50 [6]: 120 nM
- IC50 [7]: 790 nM
- IC50 [8]: 30 nM
- IC50 (Melanocytes): 200 nM
- selectivity for cancer vs normal within a matched pair ([9]; one matched lung cancer/HBEC pair): no selectivity
- selectivity for cancer vs normal within a matched pair ([9]; second pair of lines): ~25 fold

SMILES: Nc1ccccc1NC(=O)c1ccc(CNC(=O)OCc2cccnc2)cc1 [MS-275]
- relative potency against H1437 vs HCC15 cells (H1437 cells): more potent against H1437 cells than HCC15 cells

SMILES: O=C(CCCCCN1C(=O)c2cccc3cccc(c23)C1=O)NO [Scriptaid]
- relative sensitivity of HCC15 compared with H1437 cells (HCC15 cells): more sensitive

SMILES: COc1ccc(CCN(C)CCCC(C#N)(c2ccc(OC)c(OC)c2)C(C)C)cc1OC (centres unmarked) [verapamil]
- restoration of sensitivity to depsipeptide by MDR1 inhibition (H2073 cells): partly re-sensitised
- restoration of sensitivity to depsipeptide by MDR1 inhibition (H1993 cells): not affecting

Source: paper PMC3251870 (British Journal of Cancer, 2011)
